SMILES strings stand for the structures.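 Test compounds were applied to cells in 96-well plates for 48 hours at 5 doses. GI50: concentration for 50% inhibition of growth. TGI is the concentration that stops growth completely.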

The TGI is the concentration at which net growth stops. Low readings indicate more potent growth arrest, high ones less potent growth arrest. What is called GI50 is the concentration at which growth is held to half of that of the control.

Among the test systems are RPMI-8226 leukemia; UACC-62 melanoma; SK-MEL-28 melanoma; NCI-H23 lung; HCT-116 colon; NCI-H226 lung; SK-OV-3 ovarian; SK-MEL-2 melanoma; HOP-92 NSCLC; CAKI-1 renal.
Common to all, as to assay: DTP human tumour cell line panel, 48 h

Turning to `COc1cc(C(=O)N2CCN(C(=O)c3cc(OC)c(OC)c(OC)c3)C2=S)cc(OC)c1OC`, the TGI in the assay on RPMI-8226 leukemia was 26.1 µM; with UACC-62 melanoma, 29.9 µM; in the assay with SK-MEL-28 melanoma it was 35.5 µM; in the assay with NCI-H23 lung it was 37.5 µM; in the assay on HCT-116 colon, 33.1 µM; with NCI-H226 lung it was 39.1 µM. For the same compound, the TGI was 52.7 µM in the assay with SK-OV-3 ovarian, 34.6 µM in the assay with SK-MEL-2 melanoma, 34.3 µM with HOP-92 NSCLC and 24.7 µM in the assay with CAKI-1 renal. Further, the GI50 is 14.9 µM in the assay with UACC-62 melanoma; 17.2 µM in the assay on SK-MEL-28 melanoma; 18.7 µM in the assay with NCI-H23 lung; 18.2 µM in the assay on HCT-116 colon; 19.5 µM with NCI-H226 lung; 20.2 µM in the assay on SK-OV-3 ovarian. Moreover, the GI50 is 16.3 µM in the assay on SK-MEL-2 melanoma, 16.1 µM with HOP-92 NSCLC and 12.3 µM in the assay on CAKI-1 renal.

Take `O=c1c(F)cn(Cc2ccc(C34CC5CC(CC(C5)C3)C4)c(O)c2)c(=O)n1Cc1ccc(C23CC4CC(CC(C4)C2)C3)c(O)c1`: the GI50 with RPMI-8226 leukemia is 15.4 µM; in the assay with UACC-62 melanoma it was 15.9 µM; in the assay with SK-MEL-28 melanoma it was 17.7 µM; in the assay on NCI-H23 lung, 15.6 µM; in the assay on HCT-116 colon it was 11.1 µM; in the assay with NCI-H226 lung it was 12.9 µM. Also, the GI50 is 17.9 µM in the assay with SK-OV-3 ovarian, 18.8 µM with SK-MEL-2 melanoma, 12.4 µM with HOP-92 NSCLC and 17.5 µM in the assay with CAKI-1 renal. Moreover, the TGI in the assay on RPMI-8226 leukemia is 60.4 µM; in the assay on UACC-62 melanoma it was 29.5 µM; with SK-MEL-28 melanoma, 32.3 µM; with NCI-H23 lung it was 32 µM; in the assay with HCT-116 colon, 25 µM; in the assay on NCI-H226 lung, 26.1 µM. In addition, the concentration for total growth inhibition (TGI) is 33.1 µM in the assay with SK-OV-3 ovarian, 41.8 µM in the assay on SK-MEL-2 melanoma, 28.7 µM in the assay on HOP-92 NSCLC and 31.6 µM in the assay on CAKI-1 renal.

Take `C[C@@H]1C[C@@H]([C@@H](CC2CC(=O)NC(=O)C2)OC(=O)CC(=O)c2ccccc2)C(=O)[C@@H](C)C1`: the GI50 with RPMI-8226 leukemia is 4.03 µM; in the assay with UACC-62 melanoma it was 0.915 µM; in the assay on SK-MEL-28 melanoma, 0.752 µM; with NCI-H23 lung it was 0.545 µM; in the assay with HCT-116 colon, 0.489 µM; in the assay on NCI-H226 lung it was 0.686 µM. Also, the 50% growth inhibitory concentration (GI50) in the assay on SK-OV-3 ovarian is 0.411 µM; in the assay with SK-MEL-2 melanoma, 0.88 µM; with HOP-92 NSCLC, 0.324 µM; in the assay on CAKI-1 renal, 0.252 µM. The TGI was > 100 µM in the assay with RPMI-8226 leukemia; > 100 µM in the assay with UACC-62 melanoma; > 29.6 µM with SK-MEL-28 melanoma; > 80.6 µM in the assay with NCI-H23 lung; > 45.2 µM with HCT-116 colon; > 100 µM in the assay with NCI-H226 lung. The TGI with SK-OV-3 ovarian was > 43.7 µM; in the assay on SK-MEL-2 melanoma, 22.8 µM; in the assay with HOP-92 NSCLC it was > 24.9 µM.

Regarding `O=C(/C=C/c1ccc[nH]1)c1ccc(-n2ccc(C(F)(F)F)n2)cc1`, the GI50 was 0.436 µM in the assay with RPMI-8226 leukemia; > 100 µM in the assay with UACC-62 melanoma; > 100 µM in the assay on SK-MEL-28 melanoma; > 100 µM with NCI-H23 lung; > 100 µM in the assay on HCT-116 colon; > 100 µM with SK-OV-3 ovarian. The figures for the GI50 in the assay on SK-MEL-2 melanoma, in the assay with HOP-92 NSCLC and in the assay on CAKI-1 renal were > 100 µM, > 100 µM and > 31.6 µM, respectively. The concentration for total growth inhibition (TGI) in the assay with RPMI-8226 leukemia was 8.15 µM; in the assay with UACC-62 melanoma, > 100 µM; in the assay with SK-MEL-28 melanoma, > 100 µM; with NCI-H23 lung, > 100 µM; with HCT-116 colon, > 100 µM; in the assay with NCI-H226 lung, > 100 µM. In addition, the total growth inhibition concentration (TGI) with SK-OV-3 ovarian, with SK-MEL-2 melanoma, with HOP-92 NSCLC and with CAKI-1 renal was > 100 µM throughout.

With `COc1cc(OC)c2c(=O)cc(-c3ccc(OC)c(OC)c3OC)oc2c1`, the total growth inhibition concentration (TGI) in the assay with RPMI-8226 leukemia, in the assay with UACC-62 melanoma, with SK-MEL-28 melanoma, in the assay with NCI-H23 lung, in the assay on HCT-116 colon and in the assay on NCI-H226 lung was > 100 µM in each case. The TGI in the assay with SK-OV-3 ovarian, in the assay on SK-MEL-2 melanoma, in the assay with HOP-92 NSCLC and with CAKI-1 renal was > 100 µM each time.

For `NC(N)=N/N=C/c1c(Cl)cccc1Cl`, the GI50 in the assay on RPMI-8226 leukemia is 40.7 µM; in the assay on UACC-62 melanoma, 18 µM; with SK-MEL-28 melanoma, 17.6 µM; in the assay with NCI-H23 lung, 36.5 µM; in the assay with HCT-116 colon, 17.2 µM; with NCI-H226 lung, 24.1 µM. Moreover, the GI50 in the assay with SK-OV-3 ovarian is 41.6 µM; in the assay on SK-MEL-2 melanoma it was 18.5 µM; in the assay on HOP-92 NSCLC, 6.66 µM; in the assay with CAKI-1 renal, 23 µM. For the same compound, the concentration for total growth inhibition (TGI) in the assay with RPMI-8226 leukemia is > 100 µM; in the assay on UACC-62 melanoma it was 37.3 µM; with SK-MEL-28 melanoma, 34.6 µM; in the assay with NCI-H23 lung, > 100 µM; in the assay on HCT-116 colon, 36.1 µM; in the assay on NCI-H226 lung, > 100 µM. The TGI is > 100 µM with SK-OV-3 ovarian, 36.1 µM in the assay on SK-MEL-2 melanoma, 32.7 µM in the assay with HOP-92 NSCLC and 95.3 µM in the assay on CAKI-1 renal.

On to `Cc1ccc2nc(/C(=C/c3ccc(/C=C(\NC(=O)c4ccccc4)c4nc5ccc(C)cc5[nH]4)c(C)c3)NC(=O)c3ccccc3)[nH]c2c1`, for which the TGI worked out at 80.9 µM with RPMI-8226 leukemia; 13.1 µM with UACC-62 melanoma; 44.1 µM in the assay with SK-MEL-28 melanoma; 45.3 µM in the assay on NCI-H23 lung; 39.8 µM with HCT-116 colon; 77.5 µM in the assay on NCI-H226 lung. Moreover, the total growth inhibition concentration (TGI) was > 100 µM in the assay on SK-OV-3 ovarian, 33.3 µM in the assay on SK-MEL-2 melanoma, 52 µM in the assay on HOP-92 NSCLC and 91.3 µM with CAKI-1 renal.

Take `CCOC(=O)Nc1cc2c(c(N)n1)N=C(c1ccccc1)CO2`: the GI50 is 0.126 µM in the assay with RPMI-8226 leukemia; 0.359 µM with UACC-62 melanoma; 15.6 µM in the assay with SK-MEL-28 melanoma; 0.569 µM in the assay with NCI-H23 lung; 0.084 µM with HCT-116 colon; 4.16 µM in the assay with NCI-H226 lung. The GI50 was 0.289 µM in the assay with SK-OV-3 ovarian, 41.7 µM with SK-MEL-2 melanoma, 7.13 µM with HOP-92 NSCLC and 0.102 µM in the assay on CAKI-1 renal. For the same compound, the total growth inhibition concentration (TGI) in the assay on UACC-62 melanoma came out at 31.3 µM; with SK-MEL-28 melanoma, 77.7 µM; in the assay on NCI-H23 lung, 21.4 µM; with HCT-116 colon it was 13.9 µM; in the assay with NCI-H226 lung it was 41.4 µM; with SK-OV-3 ovarian, 9.4 µM. The values for the TGI in the assay on SK-MEL-2 melanoma, with HOP-92 NSCLC and with CAKI-1 renal were > 100 µM, 29.1 µM and 7.62 µM, respectively.
